Assay results as given in publication doi:10.1101/2020.04.28.066902v2 (bioRxiv, 2020).
“Also recorded” adds a separate entry of the source.

Assay: Equilibrium peptide uptake in human OA cartilage explants
Type: in vitro ADME

RKKRRQRRR [TAT-PTD]
partitioning coefficient with 500 mM NaCl vs untreated cartilage (500 mM NaCl added to the PBS, p=0.3, n=24): not
partitioning coefficient after trypsin treatment vs untreated cartilage (cartilage degraded in 5 mM trypsin for 24 hours prior to uptake, p=0.045, n=24): reduced; also recorded: decreased partitioning coefficients; also recorded: decreased uptake
